Experimental data reported in patent US20060222617A1, “Water-soluble cosmetic composition and method for manufacturing the same” (Taiyen Biotech. Co. Ltd., priority 2005, published 2006).
Where two headings read alike, the source gives them in different places.

Method: A lyophilizated product solubility test and a stability test are conducted to compare the cosmetic composition of the present invention with the start materials of the cosmetic composition.

Question: With `O=C1O[C@H]([C@@H](O)CO)C([O-])=C1OP(=O)([O-])[O-].O=C1O[C@H]([C@@H](O)CO)C([O-])=C1OP(=O)([O-])[O-].[Mg+2].[Mg+2].[Mg+2]` [Magnesium ascorbyl phosphate, magnesium ascorbyl phosphate] as the compound, how does the Solubility (after processing the cosmetic composition (lyophilized with water-soluble collagen, rehydrated with the amount of water removed)) read?
Answer: Its Solubility is 2 wt %.

Question: And the Solubility (start materials of the cosmetic composition (without processing))?
Answer: Its Solubility is 0.5 wt %.
